Assay results as given in patent US8304393B2, “Epithelial cell growth promoter” (Patent Technology Development Inc., priority 2004, dated 2012).

Test system: murine HBKs (hair bulb keratinocytes)
Assay: HBK growth test (Example 5, AlamarBlue)
Format: cell-based, mouse
Conditions: for cell growth effect as compared with that on the control: 4 days culture; for concentration at which significant difference from control could be noted: Dunnett's multiple comparison test, p<0.05
Text: The epithelial cell growth promoters of Examples 1 and 2 and Reference Examples 1 and 2 were subjected to a cell growth test for murine HBKs, respectively. The following culture medium and test medium were used.
DMEM (product code “D-5523”, a product by Sigma)
FBS (product code “10100756”, a product by Cansera International Inc.)
• 10% Penicillin/streptomycin (product code “15140-122”, a product by GIBCO) • 1% (b) Test medium MCDB153 (product code “M7403”, a product by Sigma) Insulin (product code “16634”, bovine, a product by Sigma) • 5 μg/ml Apo-transferrin (product code “T1147”, human, a product by Sigma) • 10 μg/ml EGF (product code “01-101”, murine, a product by Upstate Biotechnology Inc.) • […] BPE (product code “13028-014”, bovine pituitary extract, a product by GIBCO) • 35 μg/ml Water-soluble hydrocortisone (product code “174-00”, a product by NACALAI TESQUE INC.) • 0.5 μg/ml Ethanolamine (product code “012-12455”, a product of Wako Pure Chemical Industries Ltd.) • 100 μM o-phosphorylethanolamine (product code “P0503”, a product by Sigma) • 100 μM
The skin of a 5 day-old mouse was cut with a scalpel into strips of approximately 2-mm-wide skin slices, which were in turn immersed in a solution prepared by dissolving dispase (lot No. 0101, a product by GODO SHUSEI CO.) at a proportion of 500 U/ml in DMEM (product code “D-5523”, a product by Sigma) containing FBS (product code “10100756”, a product by Cansera International Inc.) in a concentration of 5%, and then kept standing at 4° C. for 16 hours. Subsequently, the epidermis was ablated and removed with tweezers from the skin slices to collect only dermis tissues. The thus obtained dermis tissues were immersed in PBS (−) (product code “P-4417”, a product by Sigma) and cut into strips with opthalmological scissors. The thus obtained strips were immersed in a solution prepared by dissolving collagenase (lot No. 001014W, a product by Nitta Gelatin Inc.) in a concentration of 0.2% in DMEM containing FBS in a concentration of 5%, and then digested at 37° C. for 1 hour. After centrifugation at 1000 rpm for 5 minutes, the supernatant was removed, and the residue was supplemented with PBS (−) and gently pipetted to prepare a dermis suspension.
For separating dermal fibroblasts and hair bulbs, the dermis suspension was kept standing for 15 minutes to precipitate only the hair bulbs. The hair bulbs obtained by repeating the “standing to precipitation” procedure three times were immersed in a solution prepared by dissolving, in 2.65 mM EDTA aqueous solution, trypsin in a concentration of 0.25%, and then treated at 37° C. for 5 minutes to prepare a dispersion solution of HBKs.
Next, this dispersion solution was centrifuged at 1000 rpm for 5 minutes. After this centrifugation, the supernatant was removed. The thus obtained HBKs were dispersed in a culture medium, then inoculated into a collagen-coated 96-well microplate, and cultured at 37° C. in an atmosphere containing 5% CO2.
The isoleucyl-glycyl-serine (hereinafter, abbreviated to IGS), prolyl-isoleucyl-glycine (hereinafter, abbreviated to PIG), prolyl-isoleucyl-glycyl-serine (SEQ ID NO: 2) (hereinafter, abbreviated to PIGS), and glycyl-prolyl-isoleucyl-glycine (SEQ ID NO: 1) (hereinafter, abbreviated to GPIG) obtained in Examples 1 and 2 and Reference Examples 1 and 2 were separately dissolved in a test media to prepare 6 types of sample solutions each in a concentration of 0.3 μM, 1 μM, 3 μM, 10 μM, 30 μM, and 100 μM. Only a test medium was used as a control.
After 24 hours from the inoculation of the cells, the culture solutions were removed, and the cultured cells were washed with an MCDB153 solution. Each of the above-mentioned sample solutions was added to the cultured cell at 100 μl/well and cultured at 37° C. in an atmosphere containing 5% CO2. […]

SMILES	cell growth effect as compared with that on the control (0.3 μM) [%]	cell growth effect as compared with that on the control (1 μM) [%]	cell growth effect as compared with that on the control (3 μM) [%]	cell growth effect as compared with that on the control (10 μM) [%]	cell growth effect as compared with that on the control (30 μM) [%]	cell growth effect as compared with that on the control (100 μM) [%]	concentration at which significant difference from control could be noted [µM]
CC[C@H](C)[C@H](NC(=O)[C@@H]1CCCN1)C(=O)NCC(=O)O (racemic) [PIG, prolyl-isoleucyl-glycine]	101	103	113	132	131	134	≥ 1
CC[C@H](C)[C@H](NC(=O)[C@@H]1CCCN1)C(=O)NCC(=O)N[C@@H](CO)C(=O)O (racemic) [PIGS, prolyl-isoleucyl-glycyl-serine]	104	103	108	110	127	133	≥ 3
CC[C@H](C)[C@H](N)C(=O)NCC(=O)N[C@@H](CO)C(=O)O (racemic) [IGS, isoleucyl-glycyl-serine]	98	103	106	124	134	133	≥ 10
CC[C@H](C)[C@H](NC(=O)[C@@H]1CCCN1C(=O)CN)C(=O)NCC(=O)O (racemic) [GPIG, glycyl-prolyl-isoleucyl-glycine]	105	108	118	133	134	138	≥ 0.3
